Counter-ions that a name gives are not always drawn. Values belong to the molecule of their own block, whether it stands above or below them.
Experiments:
rHDAC1 = biological target: T1, rHDAC1 (Homo sapiens, UniProt Q13547); experiment: rHDAC1 enzymatic assay (recombinant FLAG-HDAC1); assay type: biochemical; details: FLAG-HDAC1 from HEK293; 6 μM Ac-NH-GGK(Ac)-AMC, 3 h at 30° C.; read-out: rHDAC1 [pIC50] (converted)
T1 construct: FLAG; made in house
Excerpt: (§1) Human HDAC1 and HDAC6 fused with the FLAG epitope are stably expressed in HEK293 cells while human HDAC3 and HDAC8 fused with the FLAG epitope are overexpressed in baculo-virus infected insect (Sf21) cells. To ensure stability of FLAG-HDAC3 the SMRT protein is co-expressed in the corresponding insect cells. […] FLAG-HDAC3 and FLAG-HDAC8 are also purified by M2-agarose affinity chromatography after mass cultivation of the insect cells and cell lysis.
(§2) The HDAC enzyme activity assay is done as described by Wegener et al. (Chem. & Biol. 10, 61-68, 2003). Briefly 40 μl of a 1:100 dilution (=0.4 μl) nuclear HeLa extract (mixture of class I and II HDACs), 29 μl enzyme buffer (15 mM Tris HCl pH 8.1, 0.25 mM EDTA, 250 mM NaCl, 10% v:v glycerol) and 1 μl test compound are added to a well of a 96 well microtiter plate and reaction started by addition of 3 μl substrate (Ac-NH-GGK(Ac)-AMC; final concentration 25 μM and final volume […]). […] After incubation at room temperature for further 40 min, fluorescence is measured using a Wallac Victor 1420 multilabel counter (Ex 355 nm, Em 460 nm) for quantification of AMC (7-amino-4-methylcoumarin) generated by trypsine cleavage of the deacetylated peptide. […] The corresponding pIC50 values of the compounds for HDAC inhibitory activity are determined from the concentration-effect curves by means of non-linear regression (Graphpad Prism software).
(§3) The HDAC1, HDAC3 and HDAC6 enzymatic assays are done with slight modifications with recombinant FLAG-HDAC1 and FLAG-HDAC6 proteins isolated from HEK293 cell lysates or recombinant FLAG-HDAC3 isolated from insect cells, respectively. The HDAC8 enzymatic assay using recombinant FLAG-HDAC8 isolated from insect cells is done with a different substrate. About 4.5 ng/well FLAG-HDAC1 and 3.1 ng/well FLAG-HDAC6 (dependent on batches and specific activity) are incubated with 6 μM or 10 μM Ac-NH-GGK(Ac)-AMC substrate, respectively, for 3 h at 30° C. About 1.7 ng/well FLAG-HDAC3 is incubated with 6 μM Ac-NH-GGK(Ac)-AMC substrate for 2 h at 30° C., while approximately 130 ng/well FLAG-HDAC8 is incubated with 50 μM Ac-RHK(Ac)K(Ac)-AMC substrate for 3 h at 30° C. Termination of the reaction and all further steps are done as described for HeLa cell nuclear extracts as a source for HDAC enzymatic activity. The corresponding pIC50 values of the compounds for HDAC1, HDAC3, HDAC6 and HDAC8 inhibitory activity are determined from the concentration-effect curves by means of non-linear regression.

rHDAC6 = biological target: T2, rHDAC6 (Homo sapiens, UniProt Q9UBN7); experiment: rHDAC6 enzymatic assay (recombinant FLAG-HDAC6); assay type: biochemical; details: FLAG-HDAC6 from HEK293; 10 μM Ac-NH-GGK(Ac)-AMC, 3 h at 30° C.; read-out: rHDAC6 [pIC50] (converted)
T2 construct: FLAG; made in house
T2 sequence (Q9UBN7 1-1215): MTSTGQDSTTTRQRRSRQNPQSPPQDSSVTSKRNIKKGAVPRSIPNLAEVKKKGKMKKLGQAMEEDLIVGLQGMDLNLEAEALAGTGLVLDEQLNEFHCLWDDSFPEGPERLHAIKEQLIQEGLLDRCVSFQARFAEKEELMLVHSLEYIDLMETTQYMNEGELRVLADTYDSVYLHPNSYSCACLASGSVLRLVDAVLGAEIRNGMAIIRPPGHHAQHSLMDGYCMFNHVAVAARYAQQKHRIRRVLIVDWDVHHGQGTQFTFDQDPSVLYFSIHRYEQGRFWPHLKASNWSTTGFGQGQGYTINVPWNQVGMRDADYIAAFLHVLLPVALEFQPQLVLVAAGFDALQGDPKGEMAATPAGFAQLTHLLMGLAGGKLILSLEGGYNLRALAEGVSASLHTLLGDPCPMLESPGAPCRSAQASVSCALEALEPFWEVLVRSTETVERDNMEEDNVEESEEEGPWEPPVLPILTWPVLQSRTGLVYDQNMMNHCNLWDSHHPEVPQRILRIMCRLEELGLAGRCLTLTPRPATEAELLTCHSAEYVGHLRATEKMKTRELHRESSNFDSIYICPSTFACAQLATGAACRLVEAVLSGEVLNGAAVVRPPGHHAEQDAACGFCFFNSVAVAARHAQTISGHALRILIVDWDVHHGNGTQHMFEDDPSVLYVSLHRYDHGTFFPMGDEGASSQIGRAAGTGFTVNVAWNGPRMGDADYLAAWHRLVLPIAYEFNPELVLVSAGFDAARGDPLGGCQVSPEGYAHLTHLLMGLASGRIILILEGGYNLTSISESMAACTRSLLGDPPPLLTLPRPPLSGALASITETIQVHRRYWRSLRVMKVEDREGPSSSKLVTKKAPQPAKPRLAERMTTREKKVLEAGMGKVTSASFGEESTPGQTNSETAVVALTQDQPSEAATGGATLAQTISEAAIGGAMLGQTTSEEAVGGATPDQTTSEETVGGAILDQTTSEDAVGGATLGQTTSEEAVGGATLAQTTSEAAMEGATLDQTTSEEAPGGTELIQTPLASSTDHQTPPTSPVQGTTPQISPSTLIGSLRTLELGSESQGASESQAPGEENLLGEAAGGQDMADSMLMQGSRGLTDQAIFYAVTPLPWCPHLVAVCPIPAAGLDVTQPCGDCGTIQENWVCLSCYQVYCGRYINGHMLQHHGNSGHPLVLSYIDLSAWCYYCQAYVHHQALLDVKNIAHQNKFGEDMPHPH
Excerpt: as §1, §2, §3

[1] = Cellular cytotoxicity assay (Alamar Blue/Resazurin), A549; assay type: cell-based; details: human, A549 cells; A549, 72 hours incubation, Resazurin; read-out: A549 Cytotoxicity [pIC50] (converted)
Protocol: (§4) The anti-proliferative activity of the compounds as described herein, is evaluated with various solid and hematological cancer cell lines using the Alamar Blue (Resazurin) cell viability assay (O'Brien et al, Eur J Biochem 267, 5421-5426, 2000). Resazurin is reduced to the fluorescent resorufin by cellular dehydrogenase activity, correlating with viable, proliferating cells. Test compounds are dissolved as 20 mM solutions in dimethylsulfoxide (DMSO) and subsequently diluted in semi-logarithmic steps. The cancer cell lines are seeded into 96 well flat bottom plates at respective cell densities in a volume of 200 μl per well to allow continuous proliferation during the experiment. 24 hours after seeding 1 μl each of the compound dilutions is added into each well of the 96 well plate. Wells containing untreated control cells are filled with 200 μl DMEM medium containing 0.5% v:v DMSO. The cells are then incubated with the substances for 72 hours at 37° C. in a humidified atmosphere containing 5% carbon dioxide. To determine the viability of the cells, 20 μl of a Resazurin solution (Sigma; 90 mg/l) are added. After 4 hours incubation at 37° C. the fluorescence is measured at an extinction of 544 nm and an emission of 590 nm. For the calculation of the cell viability the emission value from untreated cells is set as 100% viability and the emission rates of treated cells are set in relation to the values of untreated cells. Viabilities are expressed as % values. The corresponding pIC50 values of the compounds for cytotoxic activity are determined from the concentration-effect curves by means of non-linear regression.

rHDAC3 = biological target: T3, rHDAC3 (Homo sapiens, UniProt O15379); experiment: rHDAC3 enzymatic assay (recombinant FLAG-HDAC3); assay type: biochemical; details: FLAG-HDAC3 from insect cells; 6 μM Ac-NH-GGK(Ac)-AMC, 2 h at 30° C.; read-out: rHDAC3 [pIC50] (converted)
T3 construct: FLAG; made in house; host or cells: baculovirus-infected Sf21 insect cells
T3 sequence (O15379 whole entry): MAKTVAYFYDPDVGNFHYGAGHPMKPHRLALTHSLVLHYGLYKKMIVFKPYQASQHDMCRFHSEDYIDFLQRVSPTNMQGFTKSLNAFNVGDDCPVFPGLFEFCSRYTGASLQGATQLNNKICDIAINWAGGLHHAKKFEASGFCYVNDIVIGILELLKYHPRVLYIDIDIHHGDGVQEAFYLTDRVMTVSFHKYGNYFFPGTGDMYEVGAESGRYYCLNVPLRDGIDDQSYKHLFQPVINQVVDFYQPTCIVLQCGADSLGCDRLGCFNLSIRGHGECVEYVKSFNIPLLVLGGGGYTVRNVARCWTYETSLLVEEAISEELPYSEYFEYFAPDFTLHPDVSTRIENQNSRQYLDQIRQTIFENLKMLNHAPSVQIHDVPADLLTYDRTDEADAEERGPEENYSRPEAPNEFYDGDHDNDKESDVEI
T3 sequence (Q9Y618 whole entry partner): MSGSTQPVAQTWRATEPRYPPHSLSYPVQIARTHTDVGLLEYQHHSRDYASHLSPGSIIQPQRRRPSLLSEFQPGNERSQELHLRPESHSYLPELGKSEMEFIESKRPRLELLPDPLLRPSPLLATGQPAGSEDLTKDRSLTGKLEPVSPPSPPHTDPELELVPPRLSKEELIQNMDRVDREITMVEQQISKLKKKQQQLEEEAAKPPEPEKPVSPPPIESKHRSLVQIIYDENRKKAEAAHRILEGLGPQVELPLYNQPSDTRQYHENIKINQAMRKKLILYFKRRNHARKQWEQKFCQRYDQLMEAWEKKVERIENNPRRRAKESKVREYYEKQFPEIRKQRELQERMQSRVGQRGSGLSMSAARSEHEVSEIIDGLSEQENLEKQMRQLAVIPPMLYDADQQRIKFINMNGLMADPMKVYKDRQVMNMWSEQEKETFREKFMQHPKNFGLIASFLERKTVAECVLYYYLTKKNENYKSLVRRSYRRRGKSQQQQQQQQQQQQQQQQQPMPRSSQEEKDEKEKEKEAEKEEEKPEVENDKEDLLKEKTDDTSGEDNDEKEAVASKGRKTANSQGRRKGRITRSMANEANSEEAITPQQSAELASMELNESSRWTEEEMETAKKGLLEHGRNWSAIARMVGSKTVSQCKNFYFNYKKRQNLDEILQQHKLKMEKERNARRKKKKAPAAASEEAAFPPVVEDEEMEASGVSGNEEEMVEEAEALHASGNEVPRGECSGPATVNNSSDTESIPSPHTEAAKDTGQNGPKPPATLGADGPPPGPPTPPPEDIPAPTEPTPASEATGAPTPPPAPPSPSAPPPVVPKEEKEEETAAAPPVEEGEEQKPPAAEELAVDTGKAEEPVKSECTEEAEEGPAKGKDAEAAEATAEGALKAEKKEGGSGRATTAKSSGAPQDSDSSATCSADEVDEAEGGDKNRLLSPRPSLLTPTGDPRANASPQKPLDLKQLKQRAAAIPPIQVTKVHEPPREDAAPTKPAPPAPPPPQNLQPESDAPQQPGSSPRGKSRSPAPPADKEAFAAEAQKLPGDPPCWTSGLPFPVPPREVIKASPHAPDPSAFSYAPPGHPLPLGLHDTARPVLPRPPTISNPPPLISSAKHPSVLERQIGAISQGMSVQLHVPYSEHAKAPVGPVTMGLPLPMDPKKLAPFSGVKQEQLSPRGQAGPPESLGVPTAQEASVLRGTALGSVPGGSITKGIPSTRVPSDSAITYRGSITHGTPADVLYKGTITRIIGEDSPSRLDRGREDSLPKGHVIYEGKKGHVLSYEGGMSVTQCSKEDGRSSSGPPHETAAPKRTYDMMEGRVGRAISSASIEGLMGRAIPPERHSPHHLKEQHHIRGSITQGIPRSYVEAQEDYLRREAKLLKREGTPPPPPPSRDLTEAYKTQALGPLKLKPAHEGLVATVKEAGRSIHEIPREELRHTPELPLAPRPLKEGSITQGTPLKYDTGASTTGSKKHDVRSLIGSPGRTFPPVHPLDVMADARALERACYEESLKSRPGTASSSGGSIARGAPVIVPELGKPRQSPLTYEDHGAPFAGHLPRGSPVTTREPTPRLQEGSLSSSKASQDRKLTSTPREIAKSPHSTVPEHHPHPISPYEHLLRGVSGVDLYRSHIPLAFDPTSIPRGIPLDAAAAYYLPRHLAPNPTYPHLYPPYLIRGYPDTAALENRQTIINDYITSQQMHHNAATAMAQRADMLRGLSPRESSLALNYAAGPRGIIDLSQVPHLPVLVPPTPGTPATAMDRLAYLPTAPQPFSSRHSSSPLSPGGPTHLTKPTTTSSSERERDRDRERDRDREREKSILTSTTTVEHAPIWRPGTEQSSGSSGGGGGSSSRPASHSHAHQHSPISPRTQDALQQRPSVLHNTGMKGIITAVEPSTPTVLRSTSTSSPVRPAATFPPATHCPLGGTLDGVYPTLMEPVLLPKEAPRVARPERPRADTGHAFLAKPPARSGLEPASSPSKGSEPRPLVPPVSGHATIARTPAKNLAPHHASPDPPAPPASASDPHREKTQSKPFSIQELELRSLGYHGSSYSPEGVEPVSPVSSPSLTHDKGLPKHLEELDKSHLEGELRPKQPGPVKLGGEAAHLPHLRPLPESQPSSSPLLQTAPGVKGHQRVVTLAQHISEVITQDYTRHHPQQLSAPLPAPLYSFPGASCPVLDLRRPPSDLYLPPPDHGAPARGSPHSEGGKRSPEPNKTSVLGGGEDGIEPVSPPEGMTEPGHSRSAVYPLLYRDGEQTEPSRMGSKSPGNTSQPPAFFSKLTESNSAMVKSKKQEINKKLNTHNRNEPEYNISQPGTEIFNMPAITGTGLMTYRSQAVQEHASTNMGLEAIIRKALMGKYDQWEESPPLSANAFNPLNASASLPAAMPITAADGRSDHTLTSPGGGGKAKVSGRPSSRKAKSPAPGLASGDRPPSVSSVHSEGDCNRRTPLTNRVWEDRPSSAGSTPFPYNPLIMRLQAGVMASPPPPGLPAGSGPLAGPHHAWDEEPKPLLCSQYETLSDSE
Excerpt: as §1, §2, §3

rHDAC8 = biological target: T4, rHDAC8 (Homo sapiens, UniProt Q9BY41); experiment: rHDAC8 enzymatic assay (recombinant FLAG-HDAC8); assay type: biochemical; details: FLAG-HDAC8 from insect cells; 50 μM Ac-RHK(Ac)K(Ac)-AMC, 3 h at 30° C.; read-out: rHDAC8 [pIC50] (converted)
T4 construct: FLAG; made in house; host or cells: baculovirus-infected Sf21 insect cells
T4 sequence (Q9BY41 1-377): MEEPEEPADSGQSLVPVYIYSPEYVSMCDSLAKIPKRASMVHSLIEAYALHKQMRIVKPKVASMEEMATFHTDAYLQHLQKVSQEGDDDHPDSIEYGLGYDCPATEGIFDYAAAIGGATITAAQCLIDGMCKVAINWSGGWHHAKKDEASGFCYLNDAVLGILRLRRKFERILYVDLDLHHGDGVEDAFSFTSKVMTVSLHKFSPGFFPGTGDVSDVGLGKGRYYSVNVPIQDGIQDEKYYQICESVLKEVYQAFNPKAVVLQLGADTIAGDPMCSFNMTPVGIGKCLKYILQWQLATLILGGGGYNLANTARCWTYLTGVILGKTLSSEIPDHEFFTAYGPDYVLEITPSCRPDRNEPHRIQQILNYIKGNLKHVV
Excerpt: as §1, §2, §3

[2] = Cellular cytotoxicity assay (Alamar Blue/Resazurin), HeLa; assay type: cell-based; details: human, HeLa cells, 72 hours incubation, Resazurin, read-out: HeLa Cytotoxicity [pIC50] (converted)
Protocol: as §4

T1 sequence (Q13547 whole entry): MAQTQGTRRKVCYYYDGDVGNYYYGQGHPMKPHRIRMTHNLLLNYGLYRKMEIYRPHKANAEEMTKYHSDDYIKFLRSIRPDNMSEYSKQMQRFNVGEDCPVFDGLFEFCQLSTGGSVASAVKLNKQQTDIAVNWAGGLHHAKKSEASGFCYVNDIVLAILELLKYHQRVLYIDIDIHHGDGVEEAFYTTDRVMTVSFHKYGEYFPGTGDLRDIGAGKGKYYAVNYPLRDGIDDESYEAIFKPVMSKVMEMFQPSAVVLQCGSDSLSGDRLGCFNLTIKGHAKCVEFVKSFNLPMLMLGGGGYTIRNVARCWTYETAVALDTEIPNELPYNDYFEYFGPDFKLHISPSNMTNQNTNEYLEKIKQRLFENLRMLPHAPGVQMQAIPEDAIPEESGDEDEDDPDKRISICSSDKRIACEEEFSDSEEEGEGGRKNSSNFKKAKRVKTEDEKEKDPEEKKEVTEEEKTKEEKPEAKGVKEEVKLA

- melting point: 162 to 166 °C
SMILES: O=C(NO)c1ccc2c(c1)CN(C(=O)c1ccc3ccccc3n1)C2 [Example 27, N-Hydroxy-2-(quinolin-2-ylcarbonyl)isoindoline-5-carboxamide]

- melting point: 208 to 210 °C
SMILES: O=C(NO)c1ccc2c(c1)CN(C(=O)c1ccc3ncccc3c1)C2 [Example 28, N-Hydroxy-2-(quinolin-6-ylcarbonyl)isoindoline-5-carboxamide]

- melting point: 208 to 210 °C
SMILES: O=C(NO)c1ccc2c(c1)CN(C(=O)c1cc3ccccc3cn1)C2 [Example 29, N-Hydroxy-2-(isoquinolin-3-ylcarbonyl)isoindoline-5-carboxamide]

- melting point: 63 °C
SMILES: Cc1nccn1CCC(=O)N1CCc2ccc(C(=O)NO)cc2C1.Cl

- IC50 (rHDAC1): 10 to 100 µM
- IC50 (rHDAC6): 0.001 to 0.1 µM
SMILES: O=C(NO)c1ccc2c(c1)CCN(C(=O)Cc1ccccn1)C2 [Example 2, N-Hydroxy-2-(pyridin-2-ylacetyl)-1,2,3,4-tetrahydroisoquinoline-6-carboxamide hydrochloride]
- IC50 at 72 h [1]: > 100 µM

- IC50 (rHDAC3): 10 to 100 µM
- IC50 (rHDAC8): 1 to 10 µM
SMILES: O=C(NO)c1ccc2c(c1)CCN(C(=O)Cc1ccccn1)C2 [Example 14, N-Hydroxy-2-(pyridin-2-ylacetyl)-1,2,3,4-tetrahydroisoquinoline-6-carboxamide hydrochloride]
- IC50 at 72 h [2]: 1 to 100 µM

- melting point: 177 to 181 °C
SMILES: CC(=O)N1CCc2ccc(C(=O)NO)cc2C1 [Example 25, 2-Acetyl-N-hydroxy-1,2,3,4-tetrahydroisoquinoline-7-carboxamide]
